Laboratory results published in patent publication US20230203174A1, “COMPOSITION FOR PREVENTING OR ALLEVIATING CELLULAR SENESCENCE” (SEOUL NATIONAL UNIVERSITY R&DB FOUNDATION, priority 2021, published 2023).
Where two headings read alike, the source gives them in different places.

Assays:
MC3T3-E1 cells [1] = assay: SA-β-gal staining of senescent cells; assay type: cell-based, mouse
Experimental: Senescence Associated-β-Galactosidase (SA-β-gal) Staining
SA-β-gal staining was performed with reference to the paper (2009) published by the Debacq-Chainiaux group. Cells cultured on coverslips were fixed in 4% paraformaldehyde at room temperature for 6 min. After washing cells three times with PBS, the cells were reacted for 16-24 hours in a staining solution [40 mM Na2HPO4, pH 6.0, 150 mM NaCl, 2 mM MgCl2, 5 mM K3Fe(CN)6, 5 mM K4Fe(CN)6 and 1 mg/ml X-Gal]. After washing 3 times with PBS, it was permeabilized with PBS containing 0.2% Triton X-100 at room temperature for 15 minutes. For nuclear staining, a mounting solution containing 4′,6-diamidino-2-phenylindole (DAPI) was used (AR-6501-01; ImmunoBioScience Corp., Mukilteo, Wash., USA). Images were acquired using an Eclipse TS-100 inverted microscope (Nikon). Using the ImageJ program, nucleus (DAPI) and SA-b-gal positive cells were counted in each image and compared as an average of % SA-β-gal positive cells (SA-β-gal positive cells/nuclear number×100) using the ImageJ program using 10 images of different parts per group.

Cdkn1a (p21) mRNA = assay: RT-qPCR of senescence marker Cdkn1a; assay type: cell-based, mouse
Text: (§1) RNA Preparation and Quantitative Real-Time PCR (RT-qPCR)

MC3T3-E1 cells [2] = assay: Osteoblast differentiation by ALP and Alizarin Red S staining; assay type: cell-based, mouse
Text: In addition, it was shown that and a level of protein and an expression of cdkn1a (p21) mRNA which is a molecular marker of cellular senescence, were increased by H2O2 treatment (B and C).

[3] = system: CCL2, CCL5, and CCL7 mRNA; assay: RT-qPCR of SASP factors CCL2, CCL5, CCL7; assay type: cell-based, mouse
Text: as §1

PADI2 [4] = assay: PADI2 expression (RT-qPCR, Western blot) in MC3T3-E1 cells; assay type: cell-based, mouse
Text: as §1

p21 = conditions: MC3T3-E1 cells, H2O2 treatment
Experimental: (§2) Protein was extracted using a PRO-PREP protein extraction solution (Cat #17081, iNtRON, Korea) according to a manufacturer's protocol. The same amount of protein was transferred to a polyvinylidene fluoride (PVDF) membrane after sodium dodecyl sulfate polyacrylamide gel electrophoresis (SDS-PAGE). After blocking with 5% non-fat milk, membranes were blotted in primary antibody solution at 4° C. in a refrigerator overnight. A membrane reacted with a primary antibody was washed 3 times every 5 minutes with PBS-0.05% Tween 20 solution, then reacted with a secondary antibody for 1-2 hours at room temperature, and then the membrane was washed 3 times with PBS-0.05% Tween 20 solution for 5 minutes. Thereafter, the images were acquired on an ImageQuant LAS4000 Mini (GE Healthcare) using chemiluminescence (Clarity™ Western ECL Substrate, #170-5060; Bio-Rad). α-Tubulin or β-actin was used as a protein loading control.

PADI2 [5] = conditions: human-derived mesenchymal stromal cells (hMSC), 100 μM H2O2
Experimental: as §2
Total RNA was isolated using the RNeasy Mini Kit (Qiagen, Hilden, Germany). Total RNA (1 μg) was reverse transcribed into cDNA using PrimeScript RT Master Mix (Perfect Real Time) (RR036A; TaKaRa, Japan) and a real-time PCR was performed on an STEPONEPLUS™ Real-Time PCR System (APPLIED BIOSYSTEMS™) instr μMent using TB GREEN® PREMIX EX TAQ™ (RR420A; TaKaRa). […]

[6] = system: NFκB RelA transcription factor; conditions: MC3T3-E1 cells, 100 μM H2O2 for 24 h
Experimental: After collecting cells with PBS, a cell pellet was equally divided into two tubes for whole-cell lysate and cell fractionation. The whole-cell lysate prepared with 100 μL of lysis buffer composed of 25 mM Tris-HCl pH 7.4, 150 mM NaCl, 1% NP-40, 1 mM EDTA, 5% glycerol, protease inhibitor cocktail (Roche, #11-836-153-001), phosphatase inhibitor cocktail 2 and 3 (Sigma-Aldrich, P5726 and P004 SEQ ID NO: 4). The nuclear-cytoplasmic fraction was isolated using NEPER™ nuclear and cytoplasmic extraction reagents (78855; Life Technologies, Carlsbad, Calif., USA) according to a manufacturer's protocol. Protein concentration was determined using the Pierce™ BCA Protein Assay Kit (Thermo Fisher Scientific). The whole-cell lysate, a cytoplasmic extract and a nuclear extract were separated by SDS-PAGE, transferred to PVDF membrane, and then Western blot analysis was performed with designated primary and secondary antibodies. Tubulin and Lamin A/C were used as cytoplasmic and nuclear markers, respectively.
Cells cultured on coverslips were fixed in 4% paraformaldehyde, blocked with PBS containing 2% BSA, and then reacted in a refrigerator overnight in a primary antibody solution. […] A degree of fluorescence expression was observed using a confocal microscope (LSM 800, Carl Zeiss), and representative cells were selected and photographed.

[7] = 1 μM Bay11-7082 co-treated with 100 μM H2O2
[8] = Padi2 knockdown plus NFκB inhibition

## Cc1ccc(S(=O)(=O)/C=C/C#N)cc1 [Bay11-7082]
MC3T3-E1 cells [1]; [7]
  number of senescent cells increased by H2O2 alone: reduced
MC3T3-E1 cells [1]; [8]
  number of senescent cells increased by Padi2 knockdown: decreased
Cdkn1a (p21) mRNA; [7]
  expression of Cdkn1a: reduced
Cdkn1a (p21) mRNA; [8]
  Cdkn1a expression increased by Padi2 knockdown: decreased
MC3T3-E1 cells [2]; caused by excessive ROS and Padi2 knockdown
  function degradation of osteoblast (ALP and ARS staining): restored
[3]; combined with H2O2 treatment
  expressions of CCL2, CCL5, and CCL7 (mRNA levels) increased by H2O2: significantly reduced

## OO [H2O2, hydrogen peroxide]
MC3T3-E1 cells [1]; MC3T3-E1 cells, 50 μM or 100 μM H2O2 for 3 days
  number of SA-β-gal positive cells: increased in a H2O2 concentration-dependent manner
Cdkn1a (p21) mRNA; MC3T3-E1 cells, H2O2 treatment
  expression of cdkn1a (p21) mRNA: increased
MC3T3-E1 cells [2]; MC3T3-E1 cells, excessive ROS (H2O2)
  osteoblast differentiation function (ALP and Alizarin Red S staining): significantly inhibited
PADI2 [4]; MC3T3-E1 cells, 100 μM H2O2 for 1, 4, and 7 days in differentiation medium, RT-qPCR
  Padi2 mRNA level: significantly reduced
PADI2 [4]; mouse-derived MC3T3-E1 cells, 100 μM H2O2
  expression of PADI2 (mRNA level and protein level): significantly reduced
[3]; upon H2O2 treatment
  CCL2, CCL5, and CCL7 in SASP (RNA-seq and RT-qPCR): significantly increased
p21
  level of p21 protein: increased
PADI2 [5]
  expression of PADI2 (mRNA level and protein level): significantly reduced
[6]
  NFκB RelA activation and transfer from cytoplasm to nucleus: migration to the nucleus was observed
